For the test, the system named is Staphylococcus aureus. The experiment in a line: Antibacterial activity against methicillin-resistant Staphylococcus aureus ATCC33591 infected in systemic intraperitoneal infection Kunming mouse model assessed as decrease in bacterial colonies in lungs administered intraperitoneally at 1 hr post-infection and measured after 7 days. To be noted: dose 5-20 mg/kg, route ip, time 7.0 day. Type of test: functional, organism-based.

Each structure is given as a SMILES string.

Regarding `C=C[C@]1(C)C[C@@H](OC(=O)CSc2nc3cc[n+](Cc4ccc(C)cc4)cc3[nH]2)[C@]2(C)[C@H](C)CC[C@]3(CCC(=O)[C@H]32)[C@@H](C)[C@@H]1O.[Br-]`, the Activity result is “Active; Superior Efficacy Compared To Valnemulin Observed”.

(Values after ChEMBL document CHEMBL6096719, “Kidney Targeting Smart Antibiotic Discovery: Multimechanism Pleuromutilins for Pyelonephritis Therapy” (J Med Chem, 2025).)
